The subject of one series is Anas platyrhynchos. The following applies: for LC50: short-term, feed.
Another series deals with Colinus virginianus. The following applies: for LC50: diet.
The next series concerns Apis mellifera. Conditions: acute; duration: 48 hours; oral; unspecified; mortality.
Another series has as its system Coturnix japonica. Conditions: acute; oral; mortality.
The next series concerns Cyprinodon variegatus. The following applies: acute; duration: 96 hours; mortality.
Another series deals with Daphnia magna. The following applies: chronic/long-term; duration: 21 days.
Another series deals with Folsomia candida. Conditions: chronic/long-term; duration: 28 days; reproduction.
A further series concerns Tagia sp. The following applies: acute; duration: 14 days; mortality.
In the next series the test system is Typhlodromus pyri. Description: LR50; higher = less toxic. The following applies: not reported; mortality.

This note sets out measurements from EPA's ToxValDB 9.5 (doi:10.2903/j.efsa.2010.1897).

Structures are written as SMILES. Values after ≈ are worked out from the molar mass of the structure shown. Values joined by “and” are separate entries in the source; they are usually repeats but may differ in a detail not shown here. Equal values may be shown once. Where only a bound is given, the exact number is not on record here.

Take `NC(Cc1ncn[nH]1)C(=O)O` (stereo not drawn) [1,2,4-Triazole-3-alanine]: the LC50 was greater than 1340 mg/kg-day in the series on Anas platyrhynchos (oral, mortality) and greater than 1400 mg/kg-day with Colinus virginianus (acute, oral, mortality). In addition, the NOAEL with Rattus norvegicus (developmental, development) was found to be 100 mg/kg-day.

On to `CC(C1CC1)C(O)(Cn1cncn1)c1ccc(Cl)cc1` (stereo not drawn) [Cyproconazole], for which the LD50 with Anas platyrhynchos (acute, oral, unspecified, mortality) is greater than 2000 mg/kg-day; in the series on Apis mellifera, greater than 100 µg/piece; in the series on Colinus virginianus (acute, oral, mortality), 94 mg/kg-day and 183 mg/kg-day; with Coturnix japonica it was 130 mg/kg-day; in the series on Mus musculus (acute, oral, mortality), 200 mg/kg-day. For the same compound, the NOEC in the series on Anas platyrhynchos (reproductive) is 1.4 mg/kg-day and 2.4 mg/kg-day; in the series with Colinus virginianus (reproduction developmental), 6.6 mg/kg-day; in the series with Daphnia magna it was 0.023 mg/L; with Folsomia candida, 55.8 mg/kg; with Oncorhynchus mykiss (chronic/long-term, duration: 89 days, growth), 0.16 mg/L. Further, the LC50 was 151 mg/kg-day with Anas platyrhynchos (oral, mortality); 478 mg/kg-day and 585 mg/kg-day in the series with Colinus virginianus (acute, oral, mortality); 21 µg/mL (≈ 72 µM) with Cyprinodon variegatus; 19 µg/mL (≈ 65.1 µM) in the series on Oncorhynchus mykiss (acute, duration: 96 hours, mortality); greater than 335 mg/kg with Tagia sp.. For the same compound, the no observed adverse effect level (NOAEL) amounted to 1.84 mg/kg-day with Mus musculus (chronic, duration: 18 months, body weight); 2.22 mg/kg-day with Rattus norvegicus (chronic, duration: 2 years, M/F, body weight); 1.7 mg/kg-day with Rattus norvegicus (reproduction developmental, F, reproduction); 1.4 mg/kg-day with Rattus norvegicus (reproduction developmental, M, organ weight). The compound further displayed an LR50 with Typhlodromus pyri of 29.4 g/ha.

One may read the NOAEL as the highest dose or exposure tested at which no adverse effect was seen.
